# From paper PMC5750218, “Protein-inspired antibiotics active against vancomycin- and daptomycin-resistant bacteria” (Nature Communications, 2018)
# Several values for one entry are separate records, joined by “and”; a condition that tells them apart may be missing. Equal values may be shown once. Read-outs that look alike come from different tables or passages of the source.
# Legend:
# Cytotoxicity MTT assay [1] = type: cell-based, human; conditions: human
# [2] = tested on: Methicillin-resistant S. aureus ATCC 43300; assay: microbe, parasite or virus in culture; conditions: for MIC: Staphylococcus aureus
# Method in brief: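 MICs were determined by broth microdilution in Mueller Hinton broth. Bacteria were pregrown overnight, diluted 40-fold and regrown 2–3 h at 37 °C.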
# S. aureus ATCC 43300 = assay: Membrane permeability assay (propidium iodide); type: cell-based, Staphylococcus aureus; conditions: for Fold higher propidium iodide fluorescence than oritavancin: 16 µg mL^−1, MRSA ATCC 43300
# Experimental: To evaluate the ability of the compounds to disrupt the cytoplasmic membrane integrity, the membrane impermeable fluorescent DNA intercalating dye propidium iodide (PI) was used. Early exponential phase cells were pelleted and washed twice in 10 mM HEPES buffer (pH 7.4) containing 50 µg mL^−1 of CaCl2 and 5 mM glucose, and then re-suspended in the same buffer (4 × 10^8 CFU mL^−1). Cell suspension was added to a 384-well black walled polystyrene plate (Corning, CLS3573) containing compounds, giving a final concentration of 16 µg mL^−1. After 1 h incubation at 37 °C, 5 µg mL^−1 of PI was added and fluorescence was monitored for 90 min using a Tecan Infinite® m1000 Pro Multi-mode reader (excitation/emission 535/620 nm). Data were corrected by subtraction of fluorescence signal arising from untreated cells in the presence of PI. […] Each sample was tested in quadruplicate and independent assays were performed twice showing similar results. Data was analysed and presented using Prism software.
# [3] = tested on: Methicillin-sensitive S. aureus ATCC 29213; assay: microbe, parasite or virus in culture; type: cell-based, Staphylococcus aureus; conditions: for MIC: Staphylococcus aureus, ATCC 29213 / MSSA
# Experimental: Antimicrobial activity of compounds was tested against a number of bacterial strains by broth microdilution (BMD) assay with MIC determination, including S. aureus (MSSA ATCC® 29213™, MRSA ATCC® 43300™, VISA NARSA NRS1, VISA NARSA NRS4), Streptococcus pneumoniae (MDR ATCC® 700677™) and Enterococcus faecium (MDR VanA ATCC® 51559™). ATCC strains were sourced from the American Type Culture Collection and NRS strains from NARSA (Network on Antimicrobial Resistance in S. aureus) via BEI Resources (www.beiresources.org). All compounds were prepared to 160 µg mL^−1 solution in water from a stock solution of 1 mM concentration.
# […] […] Standards ranged from 64 to 0.03 µg mL^−1 and compounds from 8 to 0.003 µg mL^−1 with final assay volumes of 100 µL per well. Gram-positive bacteria were cultured in Mueller Hinton broth (MHB) (Bactolaboratories, Cat. no. 211443) at 37 °C overnight. A sample of each culture was then diluted 40-fold in fresh MHB and incubated at 37 °C for 2–3 h. The resultant mid-log phase cultures were added to the compound-containing 96-well plates to give a final cell density of 5 × 10^5 colony forming unit (CFU) mL^−1. All the plates were covered and incubated at 37 °C for 24 h. MICs were the lowest concentration showing no visible growth.
# Cytotoxicity MTT assay [4] = type: cell-based, human; conditions: human; remark: listed apart in the source
# Method in brief: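 HepG2 and HEK293 cells, 1.5 × 10^4 per well in DMEM with 1% FBS, were allowed to attach for 24 h, then exposed 24 h at 37 °C to compounds at 100 µM to 0.046 µM in threefold steps. MTT (0.4 mg mL^−1) was added for 2 h, and formazan in DMSO was read at 570 nm. Viability is given as percent of control, corrected for a positive control.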
# [5] = tested on: Vancomycin-resistant S. aureus NARSA VRS4; assay: microbe, parasite or virus in culture; type: cell-based, Staphylococcus aureus; conditions: Staphylococcus aureus, VRSA; S. aureus NARSA VRS4; read-out: MIC VRSA
smiles,measurement,setting,value
"CCCCCCCCCCCCCC(=O)N[C@@H](CCCCN)C(=O)N[C@@H](CCCCN)C(=O)N[C@@H](CCCCN)C(=O)N[C@@H](CCCCNC(=O)[C@H]1NC(=O)[C@H]2NC(=O)[C@H](NC(=O)[C@@H]3NC(=O)[C@H](CC(N)=O)NC(=O)[C@H](NC(=O)[C@@H](CC(C)C)NC)[C@H](O)c4ccc(c(Cl)c4)Oc4cc3cc(c4O[C@@H]3O[C@H](CO)[C@@H](O)[C@H](O)[C@H]3O[C@H]3C[C@](C)(N)[C@H](O)[C@H](C)O3)Oc3ccc(cc3Cl)[C@H]2O)c2ccc(O)c(c2)-c2c(O)cc(O)cc21)C(=O)O [Compound 17, nC13CO-KKK-K(Vancomycin)-OH]",CC50 at 24 h,Cytotoxicity MTT assay [1],15 µM
same,"MIC S. aureus ATCC 43300 MRSA, NBS",[2]; ATCC 43300,≤ 0.016 µg/mL
same,"MIC S. aureus ATCC 43300 MRSA, PP",[2]; ATCC 43300,1 µg/mL
same,"MIC S. aureus ATCC 43300 MRSA, PS+P-80",[2]; ATCC 43300,≤ 0.016 µg/mL
same,MIC MRSA,"[2]; ATCC 43300, 24 h",<0.003 µg/mL
same,"MIC S. aureus ATCC 43300 MRSA, PS","[2]; polystyrene plate, no polysorbate-80",1 µg/mL and 1 to 2 µg/mL
same,Membrane permeabilisation (propidium iodide fluorescence),S. aureus ATCC 43300,comparable fluorescence intensity to oritavancin
same,"MIC S. aureus ATCC29213 MSSA, PP",[3]; ATCC 29213,1 to 2 µg/mL
same,"MIC S. aureus ATCC29213 MSSA, PS",[3]; ATCC 29213,1 µg/mL
same,"MIC S. aureus ATCC29213 MSSA, NBS",[3]; non-binding surface plate,≤ 0.016 µg/mL
same,"MIC S. aureus ATCC29213 MSSA, PS+P-80",[3]; polystyrene plate with 0.002% polysorbate-80,≤ 0.016 µg/mL
same,CC50 at 24 h,Cytotoxicity MTT assay [4],19 µM
"CCCCCCCCCC(=O)N[C@@H](Cc1c[nH]c2ccccc12)C(=O)N[C@H](CC(N)=O)C(=O)N[C@@H](CC(=O)O)C(=O)N[C@@H]1C(=O)NCC(=O)N[C@@H](CCCN)C(=O)N[C@@H](CC(=O)O)C(=O)N[C@H](C)C(=O)N[C@@H](CC(=O)O)C(=O)NCC(=O)N[C@H](CO)C(=O)N[C@@H]([C@H](C)CC(=O)O)C(=O)N[C@@H](CC(=O)c2ccccc2N)C(=O)O[C@@H]1C [Compound 4, Daptomycin]",CC50 at 24 h,Cytotoxicity MTT assay [1],> 500 µM
same,MIC,"[2]; ATCC43300 / MRSA, 24 h, read-out: MIC MRSA",2 µg/mL
same,MIC,"[2]; ATCC43300|MRSA, read-out: MIC S. aureus ATCC 43300 MRSA, NBS",1 µg/mL
same,MIC,"[2]; ATCC43300|MRSA, read-out: MIC S. aureus ATCC 43300 MRSA, PP",1 µg/mL
same,MIC,"[2]; ATCC43300|MRSA, read-out: MIC S. aureus ATCC 43300 MRSA, PS",1 µg/mL
same,MIC,"[2]; ATCC43300|MRSA, read-out: MIC S. aureus ATCC 43300 MRSA, PS+P-80",1 µg/mL
same,Fold higher propidium iodide fluorescence than oritavancin,S. aureus ATCC 43300; listed as Daptomycin,4–6 fold
same,Fold higher propidium iodide fluorescence than oritavancin,S. aureus ATCC 43300; listed as daptomycin,approximately 6 fold
same,MIC,"[3]; S. aureus ATCC 29213, read-out: MIC MSSA",1 µg/mL
same,MIC,"[3]; non-binding surface plate, read-out: MIC S. aureus ATCC29213 MSSA, NBS",0.5 to 1 µg/mL
same,MIC,"[3]; polypropylene plate, read-out: MIC S. aureus ATCC29213 MSSA, PP",1 µg/mL
same,MIC,"[3]; polystyrene plate with 0.002% polysorbate-80, read-out: MIC S. aureus ATCC29213 MSSA, PS+P-80",1 µg/mL
same,MIC,"[3]; polystyrene plate, no polysorbate-80, read-out: MIC S. aureus ATCC29213 MSSA, PS",1 µg/mL
same,MIC,[5],3 µg/mL
same,CC50 at 24 h,Cytotoxicity MTT assay [4],> 500 µM
"CCCCCCCCCCC(=O)N[C@@H](CCCCN)C(=O)N[C@@H](CCCCN)C(=O)N[C@@H](CCCCNC(=O)[C@H]1NC(=O)[C@H]2NC(=O)[C@H](NC(=O)[C@@H]3NC(=O)[C@H](CC(N)=O)NC(=O)[C@H](NC(=O)[C@@H](CC(C)C)NC)[C@H](O)c4ccc(c(Cl)c4)Oc4cc3cc(c4O[C@@H]3O[C@H](CO)[C@@H](O)[C@H](O)[C@H]3O[C@H]3C[C@](C)(N)[C@H](O)[C@H](C)O3)Oc3ccc(cc3Cl)[C@H]2O)c2ccc(O)c(c2)-c2c(O)cc(O)cc21)C(N)=O [Compound 21, nC10CO-KK-K(Vancomycin)-NH2]",CC50 at 24 h,Cytotoxicity MTT assay [1],131 µM
same,MIC MRSA,"[2]; S. aureus ATCC 43300, NBS plates, MHB, 24 h, substance alone",0.007 µg/mL
same,CC50 at 24 h,Cytotoxicity MTT assay [4],113 µM
